Test results from patent US6355799B1, “Substituted benzene compounds, process for their preparation, and herbicidal and defoliant compositions containing them” (ISK Americas Incorporated, priority 1997, dated 2002).

Columns and labels:
Format in all cases: in vivo
[1] = system: redroot pigweed (Amaranthus retroflexus, AMARE); test: Pre-emerge test, greenhouse herbicide activity screening; settings: pre-emerge, rated 14 days after application, 0 = no damage, 100 = complete death
Outline: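 Sandy loam pots; pre-emerge: sown 1 d pre-spray, surface-watered after, then bottom-watered. Post-emerge: sown 8–21 d before, 2–3 leaf stage, + 0.25% v/v NIS, bottom-watered. Acetone, 187 l/ha track spray, 15–1000 g ai/ha. 0–100 injury score, day 14.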

[2] = system: barnyardgrass (Echinochloa crus-galli, ECHCG); test: as above; settings: pre-emerge, rated 14 days after application, 0 = no damage, 100 = complete death
Outline: (§1)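 Rating: 0–100 visual injury, 14 DAA. Application: acetone, 187 l/ha, 15–1000 g ai/ha, flat-fan track sprayer with nozzle 40–45 cm above soil or canopy. Post-emerge runs used 0.25% v/v surfactant on 2–3 leaf plants.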

[3] = system: common ragweed (Ambrosia artemisizfolia L., AMBEL); test: as above; settings: pre-emerge, rated 14 days after application, 0 = no damage, 100 = complete death
Outline: as §1

[4] = system: green foxtail (Setaria viridis, SETVI); test: as above; settings: pre-emerge, rated 14 days after application, 0 = no damage, 100 = complete death
Outline: as §1

[5] = system: ivyleaf morningglory (Ipomoea hederacea, IPOHE); test: as above; settings: pre-emerge, rated 14 days after application, 0 = no damage, 100 = complete death
Outline: as §1

[6] = system: johnsongrass (Sorghum halepense, SORHA); test: as above; settings: pre-emerge, rated 14 days after application, 0 = no damage, 100 = complete death
Outline: as §1

[7] = system: lambsquarters (Chenopodium album, CHEAL); test: as above; settings: pre-emerge, rated 14 days after application, 0 = no damage, 100 = complete death
Outline: as §1

[8] = system: large crabgrass (Digitaria sanguinalis, DIGSA); test: as above; settings: pre-emerge, rated 14 days after application, 0 = no damage, 100 = complete death
Outline: as §1

[9] = system: sicklepod (Cassia obtusifolia, CASOB); test: as above; settings: pre-emerge, rated 14 days after application, 0 = no damage, 100 = complete death
Outline: as §1

[10] = system: velvetleaf (Abutilon theophrasti, ABUTH); test: as above; settings: pre-emerge, rated 14 days after application, 0 = no damage, 100 = complete death
Outline: as §1

[11] = system: field corn (Zea mays L., var. Dekalb 535, CORN); test: Pre-emerge test, crop safety; settings: pre-emerge, rated 14 days after application, 0 = no damage, 100 = complete death
Outline: (§2)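 Plants grown in 10 cm pots of sandy loam mix received acetone-dissolved compounds through a moving flat-fan nozzle. Doses ranged from 15 to 1000 g ai/ha. Pre-emerge pots were seeded one day earlier, post-emerge pots 8–21 days earlier. Fourteen days on, each pot was graded 0–100 for damage.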

[12] = system: upland rice (Oryza sp., var. Tebonnet, RICE); test: Pre-emerge test, crop safety; settings: pre-emerge, rated 14 days after application, 0 = no damage, 100 = complete death
Outline: as §2

[13] = system: barnyardgrass (Echinochloa crus-galli, ECHCG); test: Post-emerge test, greenhouse herbicide activity screening; settings: phytotoxicity rating 0-100 (0 no damage, 100 complete death), 14 days after application
Outline: (§3)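 Fourteen days after spraying, crop and weed injury was graded visually from 0, no effect, to 100, every plant dead. Test substances were dissolved in acetone and applied at 15–1000 g ai/ha with a flat-fan nozzle. Application was either pre-emergence, one day after sowing, or post-emergence at the 2–3 leaf stage.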

[14] = system: common ragweed (Ambrosia artemisizfolia L., AMBEL); test: as above; settings: phytotoxicity rating 0-100 (0 no damage, 100 complete death), 14 days after application
Outline: as §3

[15] = system: green foxtail (Setaria viridis, SETVI); test: as above; settings: phytotoxicity rating 0-100 (0 no damage, 100 complete death), 14 days after application
Outline: as §3

[16] = system: ivyleaf morningglory (Ipomoea hederacea, IPOHE); test: as above; settings: phytotoxicity rating 0-100 (0 no damage, 100 complete death), 14 days after application
Outline: as §3

[17] = system: lambsquarters (Chenopodium album, CHEAL); test: as above; settings: phytotoxicity rating 0-100 (0 no damage, 100 complete death), 14 days after application
Outline: as §3

[18] = system: large crabgrass (Digitaria sanguinalis, DIGSA); test: as above; settings: phytotoxicity rating 0-100 (0 no damage, 100 complete death), 14 days after application
Outline: as §3

[19] = system: redroot pigweed (Amaranthus retroflexus, AMARE); test: as above; settings: phytotoxicity rating 0-100 (0 no damage, 100 complete death), 14 days after application
Outline: as §3

[20] = system: sicklepod (Cassia obtusifolia, CASOB); test: as above; settings: phytotoxicity rating 0-100 (0 no damage, 100 complete death), 14 days after application
Outline: as §3

[21] = system: velvetleaf (Abutilon theophrasti, ABUTH); test: as above; settings: phytotoxicity rating 0-100 (0 no damage, 100 complete death), 14 days after application
Outline: as §3

[22] = system: field corn (Zea mays L., var. Dekalb 535, CORN); test: Post-emerge test, crop safety; settings: phytotoxicity rating 0-100 (0 no damage, 100 complete death), 14 days after application
Outline: as §2

[23] = system: upland rice (Oryza sp., var. Tebonnet, RICE); test: Post-emerge test, crop safety; settings: phytotoxicity rating 0-100 (0 no damage, 100 complete death), 14 days after application
Outline: as §2

CCOc1c(Cl)cc(F)c(-n2c(=O)cc(C(F)(F)F)n(C)c2=O)c1N [Compound 1-61]
Pre-emerge Herbicidal Activity AMARE (phytotoxicity rating, scale 0-100) ([1]; 63 g ai/ha): 95
Pre-emerge Herbicidal Activity AMARE (phytotoxicity rating, scale 0-100) ([1]; 250 g ai/ha): 100
Pre-emerge Herbicidal Activity ECHCG (phytotoxicity rating, scale 0-100) ([2]; 63 g ai/ha): 75
Pre-emerge Herbicidal Activity ECHCG (phytotoxicity rating, scale 0-100) ([2]; 250 g ai/ha): 99
Pre-emerge Herbicidal Activity AMBEL (phytotoxicity rating, scale 0-100) ([3]; 63 g ai/ha): 60
Pre-emerge Herbicidal Activity AMBEL (phytotoxicity rating, scale 0-100) ([3]; 250 g ai/ha): 100
Pre-emerge Herbicidal Activity SETVI (phytotoxicity rating, scale 0-100) ([4]; 63 g ai/ha): 95
Pre-emerge Herbicidal Activity SETVI (phytotoxicity rating, scale 0-100) ([4]; 250 g ai/ha): 100
Pre-emerge Herbicidal Activity IPOHE (phytotoxicity rating, scale 0-100) ([5]; 63 g ai/ha): 60
Pre-emerge Herbicidal Activity IPOHE (phytotoxicity rating, scale 0-100) ([5]; 250 g ai/ha): 90
Pre-emerge Herbicidal Activity SORHA (phytotoxicity rating, scale 0-100) ([6]; 63 g ai/ha): 70
Pre-emerge Herbicidal Activity SORHA (phytotoxicity rating, scale 0-100) ([6]; 250 g ai/ha): 99
Pre-emerge Herbicidal Activity CHEAL (phytotoxicity rating, scale 0-100) ([7]; 63 g ai/ha): 100
Pre-emerge Herbicidal Activity CHEAL (phytotoxicity rating, scale 0-100) ([7]; 250 g ai/ha): 100
Pre-emerge Herbicidal Activity DIGSA (phytotoxicity rating, scale 0-100) ([8]; 63 g ai/ha): 40
Pre-emerge Herbicidal Activity DIGSA (phytotoxicity rating, scale 0-100) ([8]; 250 g ai/ha): 99
Pre-emerge Herbicidal Activity CASOB (phytotoxicity rating, scale 0-100) ([9]; 63 g ai/ha): 30
Pre-emerge Herbicidal Activity CASOB (phytotoxicity rating, scale 0-100) ([9]; 250 g ai/ha): 80
Pre-emerge Herbicidal Activity ABUTH (phytotoxicity rating, scale 0-100) ([10]; 63 g ai/ha): 100
Pre-emerge Herbicidal Activity ABUTH (phytotoxicity rating, scale 0-100) ([10]; 250 g ai/ha): 100
Pre-emerge crop damage CORN (phytotoxicity rating, scale 0-100) ([11]; 63 g ai/ha): 60
Pre-emerge crop damage CORN (phytotoxicity rating, scale 0-100) ([11]; 250 g ai/ha): 95
Pre-emerge crop damage RICE (phytotoxicity rating, scale 0-100) ([12]; 63 g ai/ha): 50
Pre-emerge crop damage RICE (phytotoxicity rating, scale 0-100) ([12]; 250 g ai/ha): 95
Post-emerge Herbicidal Activity ECHCG ([13]; 63 g ai/ha): 0
Post-emerge Herbicidal Activity ECHCG ([13]; 250 g ai/ha): 10
Post-emerge Herbicidal Activity AMBEL ([14]; 63 g ai/ha): 70
Post-emerge Herbicidal Activity AMBEL ([14]; 250 g ai/ha): 85
Post-emerge Herbicidal Activity SETVI ([15]; 63 g ai/ha): 10
Post-emerge Herbicidal Activity SETVI ([15]; 250 g ai/ha): 30
Post-emerge Herbicidal Activity IPOHE ([16]; 63 g ai/ha): 100
Post-emerge Herbicidal Activity IPOHE ([16]; 250 g ai/ha): 100
Post-emerge Herbicidal Activity CHEAL ([17]; 63 g ai/ha): 30
Post-emerge Herbicidal Activity CHEAL ([17]; 250 g ai/ha): 70
Post-emerge Herbicidal Activity DIGSA ([18]; 63 g ai/ha): 10
Post-emerge Herbicidal Activity DIGSA ([18]; 250 g ai/ha): 30
Post-emerge Herbicidal Activity AMARE ([19]; 63 g ai/ha): 50
Post-emerge Herbicidal Activity AMARE ([19]; 250 g ai/ha): 70
Post-emerge Herbicidal Activity CASOB ([20]; 63 g ai/ha): 60
Post-emerge Herbicidal Activity CASOB ([20]; 250 g ai/ha): 70
Post-emerge Herbicidal Activity ABUTH ([21]; 63 g ai/ha): 70
Post-emerge Herbicidal Activity ABUTH ([21]; 250 g ai/ha): 100
Post-emerge Herbicidal Activity CORN (crop damage) ([22]; 63 g ai/ha): 10
Post-emerge Herbicidal Activity CORN (crop damage) ([22]; 250 g ai/ha): 30
Post-emerge Herbicidal Activity RICE (crop damage) ([23]; 63 g ai/ha): 10
Post-emerge Herbicidal Activity RICE (crop damage) ([23]; 250 g ai/ha): 35
